Among the test systems are HL-60; SK-OV-3; A549; LOX IMVI; NCI-H522; MDA-MB-435; IGROV-1; SNB-19; Hs-578T; Malme-3M; HT-29; SK-MEL-2; NCI/ADR-RES; TK-10; MOLT-4; RPMI-8226; NCI-H23; OVCAR-8; HOP-92; KM12.
Experiment in all cases: inhibition of tumour cell growth, NCI panel, 48 h

SMILES strings stand for the structures.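 Compound exposure: 48 hours, 5 concentrations, 96-well plates. The concentration for 50% growth inhibition is given as GI50.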 Calls of active or inactive are those of the source. No stated cut-off is given here; in the data, active = GI50 up to about 1.1 µM and inactive = higher. Where only a bound is given, the exact number is not on record here.

Turning to `CC(=O)N1NC(c2ccccc2)=NC(=O)C1c1cc(C)c(O)c(C)c1` (stereo not given), the GI50 in the assay on HL-60 was > 100 µM (inactive); with SK-OV-3 it was 18.7 µM (inactive); in the assay with A549, 24.4 µM (inactive); in the assay on LOX IMVI, 36.3 µM (inactive); in the assay on NCI-H522, 17.8 µM (inactive); in the assay on MDA-MB-435, 64.4 µM (inactive). Further, the GI50 in the assay with IGROV-1 was 26.9 µM (inactive); in the assay on SNB-19 it was 21.2 µM (inactive); in the assay on Hs-578T, 29.8 µM (inactive); with Malme-3M it was 17.7 µM (inactive); in the assay with HT-29, 72.4 µM (inactive); with SK-MEL-2, 28.1 µM (inactive). The GI50 in the assay on NCI/ADR-RES was 21.9 µM (inactive); in the assay on TK-10, 20.6 µM (inactive); in the assay on MOLT-4, > 100 µM (inactive); in the assay with RPMI-8226, 52.7 µM (inactive); in the assay with NCI-H23 it was 24 µM (inactive); in the assay with OVCAR-8 it was 17.6 µM (inactive). The GI50 in the assay with HOP-92 was 19.8 µM (inactive); in the assay with KM12, 36 µM (inactive).
For `COc1cc(OC)c(-c2ccc(OCc3ccccc3)c3c(OC)cc(C)cc23)c2c1C(C)=N[C@H](C)C2`, the GI50 is 2.2 µM (inactive) with HL-60; 2.19 µM (inactive) in the assay with SK-OV-3; 2.3 µM (inactive) in the assay on A549; 1.88 µM (inactive) in the assay on LOX IMVI; 1.82 µM (inactive) in the assay on NCI-H522; 2.3 µM (inactive) in the assay on MDA-MB-435. The GI50 in the assay with IGROV-1 was 1.87 µM (inactive); in the assay on SNB-19, 2.68 µM (inactive); in the assay with Hs-578T, 2.29 µM (inactive); with Malme-3M, 1.8 µM (inactive); in the assay on HT-29, 1.97 µM (inactive); in the assay with SK-MEL-2, 2.25 µM (inactive). In addition, the GI50 with NCI/ADR-RES was 2.12 µM (inactive); in the assay with TK-10, 1.8 µM (inactive); with MOLT-4 it was 2.29 µM (inactive); in the assay on RPMI-8226 it was 1.44 µM (inactive); in the assay on NCI-H23, 2.36 µM (inactive); in the assay with OVCAR-8 it was 1.96 µM (inactive). Further, the figures for the GI50 in the assay with HOP-92 and in the assay with KM12 were 1.64 µM (inactive) and 2.09 µM (inactive), respectively.
As to `CC(=O)NC1=C(C)C(=O)c2c(nc3n2CCC3OC(=O)c2ccccc2)C1=N` (stereo not given), the GI50 in the assay on HL-60 is 1.21 µM (inactive); in the assay with SK-OV-3, 3.36 µM (inactive); in the assay with A549 it was 3.18 µM (inactive); in the assay with LOX IMVI, 0.406 µM (active); in the assay on NCI-H522, 3.83 µM (inactive); in the assay on MDA-MB-435, 0.166 µM (active). The GI50 is 1.74 µM (inactive) in the assay with IGROV-1; 3.48 µM (inactive) with SNB-19; 2.06 µM (inactive) with Hs-578T; 1.13 µM (inactive) in the assay on Malme-3M; 0.973 µM (active) in the assay with HT-29; 1.76 µM (inactive) with SK-MEL-2. In addition, the GI50 is 2.93 µM (inactive) in the assay with NCI/ADR-RES; 3.5 µM (inactive) with TK-10; 1.84 µM (inactive) in the assay on MOLT-4; 1.31 µM (inactive) in the assay with RPMI-8226; 1.46 µM (inactive) with NCI-H23; 1.04 µM (active) with OVCAR-8. The GI50 in the assay with HOP-92 is 2.15 µM (inactive); in the assay with KM12 it was 4.55 µM (inactive).
Regarding `CC(=O)OCC1OC(Oc2cc(C)c(O)cc2C/C=C(\C)CC/C=C(\C)CC(=O)CC(C)C)C(O)C(OC(C)=O)C1OC(C)=O` (stereo not given), the GI50 with HL-60 was 10.8 µM (inactive); in the assay with SK-OV-3 it was 26.2 µM (inactive); in the assay on A549, 7.8 µM (inactive); in the assay with LOX IMVI, 13 µM (inactive); in the assay with NCI-H522, 13.6 µM (inactive); with MDA-MB-435, 15 µM (inactive). The GI50 was 29.4 µM (inactive) with IGROV-1; 7.93 µM (inactive) in the assay with SNB-19; 11.9 µM (inactive) with Hs-578T; > 50 µM (inactive) with Malme-3M; 6 µM (inactive) in the assay with HT-29; 10.2 µM (inactive) in the assay on SK-MEL-2. Moreover, the GI50 in the assay on NCI/ADR-RES was 11.4 µM (inactive); in the assay on TK-10, 16.2 µM (inactive); in the assay on MOLT-4, 9.23 µM (inactive); in the assay with RPMI-8226 it was 9.16 µM (inactive); in the assay on NCI-H23, 6.95 µM (inactive); with OVCAR-8, 16.9 µM (inactive). Also, the GI50 in the assay on HOP-92 is 45.8 µM (inactive); in the assay on KM12, 12.5 µM (inactive).

The values above are taken from ChEMBL document CHEMBL1201862, “PubChem BioAssay data set” (2004).
